The source of these data is patent US12128028B2, “Heterocyclic sulfonamide derivatives and pharmaceutical uses thereof” (METRION BIOSCIENCES LIMITED, priority 2018, dated 2024).

The assay deals with human Kv1.3 (Homo sapiens (Human), UniProt P22001). Kind of assay: Kv1.3 potency evaluation, automated patch clamp electrophysiology (QPatch HT) in CHO-Kv1.3 cells. The note with it: whole-cell QPatch HT, % inhibition of charge, step to +30 mV, four concentrations, N≥3 cells, read-out: hKv1.3 IC50. The class given is cell-based. Put shortly:
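Automated whole-cell patch clamp in CHO cells stably expressing human Kv1.3; steps from −80 to +30 mV (500 ms) at 0.067 Hz. Four cumulative concentrations after vehicle (0.1-0.3% DMSO); charge inhibition vs vehicle fitted by four-parameter logistic for IC50, N≥3 cells.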

pIC50: −log10 of the molar value.

Chain of human Kv1.3 (P22001 whole entry): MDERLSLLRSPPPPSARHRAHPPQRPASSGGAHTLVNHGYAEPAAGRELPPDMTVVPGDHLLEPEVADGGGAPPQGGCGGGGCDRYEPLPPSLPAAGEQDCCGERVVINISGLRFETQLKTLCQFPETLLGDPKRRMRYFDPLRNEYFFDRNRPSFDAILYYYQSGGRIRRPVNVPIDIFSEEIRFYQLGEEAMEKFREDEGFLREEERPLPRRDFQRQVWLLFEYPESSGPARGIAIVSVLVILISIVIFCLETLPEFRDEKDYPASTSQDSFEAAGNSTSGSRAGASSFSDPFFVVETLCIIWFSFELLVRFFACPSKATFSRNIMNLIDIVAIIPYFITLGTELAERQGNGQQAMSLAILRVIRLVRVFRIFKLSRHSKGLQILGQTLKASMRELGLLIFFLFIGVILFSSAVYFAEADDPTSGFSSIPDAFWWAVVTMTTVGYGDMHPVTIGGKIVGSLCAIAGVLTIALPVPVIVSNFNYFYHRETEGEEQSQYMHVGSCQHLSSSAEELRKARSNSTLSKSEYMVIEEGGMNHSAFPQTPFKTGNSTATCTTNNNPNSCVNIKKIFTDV

For the compound `CC1(C)N=C(C23CC(N(Cc4ccc(Cl)c(F)c4)S(=O)(=O)c4ccccc4)(C2)C3)N[C@H]1C(=O)NCC1CC1` (mixture of isomers) [Example 56], the pIC50 was 7.30.

For `CC1(C)N=C(C23CC(N(Cc4ccc(Cl)c(F)c4)S(=O)(=O)c4ccccc4)(C2)C3)N[C@H]1C(=O)N1CCC(F)(F)CC1` (mixture of isomers) [Example 123], the negative logarithm of the IC50 (pIC50) was 7.12.

As to `CC1(NC(=O)[C@@H]2NC(C34CC(N(Cc5ccc(Cl)c(F)c5)S(=O)(=O)c5ccccc5)(C3)C4)=NC2(C)C)CCC1` (mixture of isomers) [Example 21], the pIC50 is 7.42.

Turning to `CC1(C)N=C(C23CC(N(Cc4ccc(Cl)c(F)c4)S(=O)(=O)c4ccccc4)(C2)C3)N[C@H]1C(=O)NCC(C)(C)C(F)(F)F` (mixture of isomers) [Example 163], the negative logarithm of the IC50 (pIC50) is 7.01.

With `C[C@]1(C(=O)NCC2CC2)CN=C(C23CC(N(Cc4ccc(C(F)(F)F)cc4)S(=O)(=O)c4ccc(F)cc4)(C2)C3)N1` (mixture of isomers) [Example 218], the negative-log IC50 (pIC50) is 6.77.

As for `CC1(C)N=C(C23CC(N(Cc4ccc(Cl)c(F)c4)S(=O)(=O)c4ccccc4)(C2)C3)N[C@@H]1C(=O)N1CCC(F)(F)CC1` (mixture of isomers) [Example 248], the pIC50 is 6.56.

With `CC1(C)N=C(C23CC(N(Cc4ccc(Cl)c(F)c4)S(=O)(=O)c4ccccc4)(C2)C3)N[C@H]1C(=O)NC1CC1` (mixture of isomers) [Example 68], the pIC50 is 7.26.

Regarding `CC1(C)N=C(C23CC(N(Cc4ccc(Cl)c(F)c4)S(=O)(=O)c4ccccc4)(C2)C3)N[C@H]1C(=O)NC12CC(C(F)(F)F)(C1)C2` (mixture of isomers) [Example 242], the pIC50 is 6.61.

Take `CC1(C)N=C(C23CC(N(Cc4cccc(F)c4)S(=O)(=O)c4ccccc4)(C2)C3)N[C@H]1C(=O)NCCC(F)(F)F` (mixture of isomers) [Example 40]: the negative logarithm of the IC50 (pIC50) is 7.34.

For `CN(CCC(F)(F)F)C(=O)[C@@H]1NC(C23CC(N(Cc4ccc(Cl)c(Cl)c4)S(=O)(=O)CCC(F)F)(C2)C3)=NC1(C)C` (mixture of isomers) [Example 207], the negative-log IC50 (pIC50) is 6.86.

As for `CC1(C)N=C(C23CC(N(Cc4ccc(C(F)(F)F)cc4)S(=O)(=O)c4ccc(F)cc4)(C2)C3)NC1C(=O)N1CCC(F)(F)CC1` (stereo not shown) [Example 236], the pIC50 was 6.67.

In the case of `CN(CC1CC1(F)F)C(=O)[C@@H]1NC(C23CC(N(Cc4ccc(Cl)c(F)c4)S(=O)(=O)c4ccccc4)(C2)C3)=NC1(C)C` (mixture of isomers) [Example 69], the negative-log IC50 (pIC50) was 7.26.

Take `C[C@]1(C(=O)NCc2ccccc2)CN=C(C23CC(N(Cc4ccc(C(F)(F)F)cc4)S(=O)(=O)c4ccc(F)cc4)(C2)C3)N1` (mixture of isomers) [Example 270]: the pIC50 is 6.31.

For `CC1(C)N=C(C23CC(N(Cc4ccc(Cl)c(F)c4)S(=O)(=O)c4ccccc4)(C2)C3)N[C@H]1C(=O)NC1CC1C(F)(F)F` (mixture of isomers) [Example 169], the pIC50 was 7.00.

Turning to `CC1(C)N=C(C23CC(N(Cc4ccc(Cl)cc4)S(=O)(=O)C4CCOCC4)(C2)C3)N[C@H]1C(=O)NCCC(F)(F)F` (mixture of isomers) [Example 272], the pIC50 is 6.28.

Take `CC(C)NC(=O)[C@@]1(C)CN=C(C23CC(N(Cc4ccccc4)S(=O)(=O)c4ccccc4)(C2)C3)N1` (mixture of isomers) [Example 258]: the pIC50 was 6.44.

For `CC(NC(=O)[C@@]1(C)CN=C(C23CC(N(Cc4ccc(C(F)(F)F)cc4)S(=O)(=O)c4ccc(F)cc4)(C2)C3)N1)C1CCC1` (mixture of isomers) [Example 275], the negative-log IC50 (pIC50) was 6.24.

For `CC(C)(C)NC(=O)[C@@H]1NC(C23CC(N(Cc4ccc(Cl)c(F)c4)S(=O)(=O)c4ccccc4)(C2)C3)=NC1(C)C` (mixture of isomers) [Example 175], the pIC50 was 6.98.

With `CC1(C)N=C(C23CC(N(Cc4ccc(Cl)c(F)c4)S(=O)(=O)c4ccccc4)(C2)C3)N[C@H]1C(=O)N1CCC12CCC2` (mixture of isomers) [Example 30], the pIC50 is 7.39.

For the compound `CC1(C)N=C(C23CC(N(Cc4ccc(Cl)c(F)c4)S(=O)(=O)c4ccccc4)(C2)C3)N[C@H]1C(=O)NC[C@H]1CC1(F)F` (mixture of isomers) [Example 22], the pIC50 is 7.41.

As to `CC1(C)N=C(C23CC(N(Cc4ccc(Cl)c(Cl)c4)S(=O)(=O)c4ccccc4)(C2)C3)N[C@H]1C(=O)N1CCC(F)(F)CC1` (mixture of isomers) [Example 86], the pIC50 is 7.21.

On to `C[C@]1(C(=O)N2CC3(CCC3)C2)CN=C(C23CC(N(Cc4ccc(C(F)(F)F)cc4)S(=O)(=O)c4ccc(F)cc4)(C2)C3)N1` (mixture of isomers) [Example 253], for which the negative-log IC50 (pIC50) is 6.49.

Take `CN(C(=O)[C@@H]1NC(C23CC(N(Cc4ccc(Cl)c(Cl)c4)S(=O)(=O)c4ccccc4)(C2)C3)=NC1(C)C)C1CC(F)(F)C1` (mixture of isomers) [Example 29]: the pIC50 is 7.40.

For `CC1(C)N=C(C23CC(N(Cc4ccc(Cl)cc4)S(C)(=O)=O)(C2)C3)N[C@H]1C(=O)NCCC(F)(F)F` (mixture of isomers) [Example 274], the negative-log IC50 (pIC50) is 6.25.

Consider `CC(C)(F)CNC(=O)[C@@H]1NC(C23CC(N(Cc4ccc(Cl)c(F)c4)S(=O)(=O)c4ccccc4)(C2)C3)=NC1(C)C` (mixture of isomers) [Example 35], for which the pIC50 was 7.36.

As for `CC1(C)N=C(C23CC(N(Cc4ccc(Cl)c(Cl)c4)S(=O)(=O)c4ccccc4)(C2)C3)N[C@H]1C(=O)NC1CC1C(F)(F)F` (mixture of isomers) [Example 189], the pIC50 is 6.95.

As to `CC1(C)N=C(C23CC(N(Cc4ccc(Cl)c(F)c4)S(=O)(=O)c4ccccc4)(C2)C3)N[C@H]1C(=O)N1CC2(C1)CC(F)(F)C2` (mixture of isomers) [Example 198], the negative-log IC50 (pIC50) is 6.90.

For the compound `CC1(C)N=C(C23CC(N(Cc4ccc(Cl)c(F)c4)S(=O)(=O)c4ccccc4)(C2)C3)N[C@H]1C(=O)NCCC1CC1` (mixture of isomers) [Example 20], the pIC50 was 7.43.

In the case of `CC(C)NC(=O)[C@@]1(C)CN=C(C23CC(N(Cc4ccccc4)S(=O)(=O)c4ccc(F)cc4)(C2)C3)N1` (mixture of isomers) [Example 243], the negative logarithm of the IC50 (pIC50) was 6.60.

Regarding `CC1(C)N=C(C23CC(N(Cc4ccc(Cl)cc4)S(=O)(=O)c4ccccc4)(C2)C3)N[C@H]1C(=O)NCC(F)(F)C(F)(F)F` (mixture of isomers) [Example 112], the negative logarithm of the IC50 (pIC50) is 7.14.

`CN(C(=O)[C@@H]1NC(C23CC(N(Cc4ccc(Cl)c(F)c4)S(=O)(=O)c4ccccc4)(C2)C3)=NC1(C)C)C1CC(C(F)F)C1` (mixture of isomers) [Example 78]: the negative logarithm of the IC50 (pIC50) was 7.22.

`CC(C)(F)CNC(=O)[C@@H]1NC(C23CC(N(Cc4ccc(Cl)c(Cl)c4)S(=O)(=O)CCC(F)F)(C2)C3)=NC1(C)C` (mixture of isomers) [Example 50]: the negative-log IC50 (pIC50) is 7.32.

Take `CC1(C)N=C(C23CC(N(Cc4ccc(Cl)cc4)S(=O)(=O)c4ccc(Cl)cc4)(C2)C3)N[C@H]1C(=O)NCCC(F)(F)F` (mixture of isomers) [Example 66]: the negative-log IC50 (pIC50) was 7.28.

With `CC1(C)N=C(C23CC(N(Cc4ccc(Cl)c(F)c4)S(=O)(=O)c4ccccc4)(C2)C3)N[C@H]1C(=O)NCC(F)(F)F` (mixture of isomers) [Example 140], the negative logarithm of the IC50 (pIC50) was 7.08.

In the case of `C[C@]1(C(=O)NCCC2CCC2)CN=C(C23CC(N(Cc4ccc(C(F)(F)F)cc4)S(=O)(=O)c4ccc(F)cc4)(C2)C3)N1` (mixture of isomers) [Example 278], the pIC50 was 6.23.

For `CC1(C)CCN(C(=O)[C@@]2(C)CN=C(C34CC(N(Cc5ccc(C(F)(F)F)cc5)S(=O)(=O)c5ccc(F)cc5)(C3)C4)N2)C1` (mixture of isomers) [Example 264], the negative logarithm of the IC50 (pIC50) was 6.39.

Take `CC(F)(F)CCS(=O)(=O)N(Cc1ccc(Cl)c(F)c1)C12CC(C3=NC(C)(C)[C@H](C(=O)NCC(F)(F)C(F)(F)F)N3)(C1)C2` (mixture of isomers) [Example 222]: the negative logarithm of the IC50 (pIC50) is 6.77.

For the compound `CN(C(=O)[C@@H]1NC(C23CC(N(Cc4ccc(Cl)c(Cl)c4)S(=O)(=O)c4ccccc4)(C2)C3)=NC1(C)C)C12CC(C1)C2` (mixture of isomers) [Example 17], the pIC50 was 7.46.

For the compound `C[C@@]1(C(=O)Nc2ccccc2)CN=C(C23CC(N(Cc4ccc(C(F)(F)F)cc4)S(=O)(=O)c4ccc(F)cc4)(C2)C3)N1` (mixture of isomers) [Example 288], the negative-log IC50 (pIC50) is 5.99.

For the compound `C[C@]1(C(=O)N2CCCC2)CN=C(C23CC(N(Cc4ccc(C(F)(F)F)cc4)S(=O)(=O)c4ccc(F)cc4)(C2)C3)N1` (mixture of isomers) [Example 262], the negative logarithm of the IC50 (pIC50) was 6.40.

In the case of `CC1(C)N=C(C23CC(N(Cc4ccc(Cl)c(F)c4)S(=O)(=O)c4ccccc4)(C2)C3)N[C@H]1C(=O)NCC1CC1(F)F` (mixture of isomers) [Example 14], the negative-log IC50 (pIC50) was 7.48.

Turning to `CC1(C)N=C(C23CC(N(Cc4ccc(C(F)(F)F)cc4)S(=O)(=O)c4ccc(F)cc4)(C2)C3)NC1C(=O)NCC1(O)CCC1` (stereo not shown) [Example 271], the negative-log IC50 (pIC50) was 6.31.

Turning to `CC1(C)N=C(C23CC(N(Cc4ccc(Cl)c(F)c4)S(=O)(=O)c4ccccc4)(C2)C3)N[C@H]1C(=O)N1CC[C@@H](C(F)(F)F)C1` (mixture of isomers) [Example 125], the pIC50 was 7.12.

In the case of `CC1N=C(C23CC(N(Cc4ccc(C(F)(F)F)cc4)S(=O)(=O)c4ccc(F)cc4)(C2)C3)N[C@@]1(C)C(=O)NCCC(F)(F)F` (mixture of isomers) [Example 265], the pIC50 is 6.39.

With `CC1(C)N=C(C23CC(N(Cc4ccc(Cl)cc4)S(=O)(=O)c4ccccc4Cl)(C2)C3)N[C@H]1C(=O)NCCC(F)(F)F` (mixture of isomers) [Example 107], the pIC50 is 7.15.

On to `CC1(C)N=C(C23CC(N(Cc4ccc(Cl)c(F)c4)S(=O)(=O)c4ccccc4)(C2)C3)N[C@H]1C(=O)N1CCC(C(F)(F)F)CC1` (mixture of isomers) [Example 188], for which the negative-log IC50 (pIC50) was 6.95.

Usually pIC50 stands for the negative decadic logarithm of the IC50, by convention in mol/L.
